Data as given in PubChem BioAssay AID248 (DTP/NCI, 2004).
Values joined by “and” are separate entries in the source; they are usually repeats but may differ in a detail not shown here. Equal entries are not always repeated. Inconclusive results and toxic doses are left out. Cut-off read from the data, not from the text of the source: active = T/C of 150% or more; inactive = T/C below 125%.

Test system: L1210 leukemia ip in BDF1 mice, survival T/C
Experiment: NCI In Vivo Anticancer Drug Screen. Data for tumor model L1210 Leukemia (intraperitoneal) in B6D2F1 (BDF1) mice
Settings: endpoint: mean survival time, higher = longer survival
Procedure, shortened: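 Ratio derived from survival: compound-dosed mice over vehicle-dosed mice, all bearing a transplantable tumor.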

[1] = dose: 100.0 mg/kg/injection, schedule: Q04DX003 (ip), vehicle: saline
[2] = dose: 100.0 mg/kg/injection, schedule: Q01DX009 (ip), vehicle: Klucel (hydroxypropylcellulose) (HPC)
[3] = dose: 200.0 mg/kg/injection, schedule: Q01DX009 (ip), vehicle: Klucel (hydroxypropylcellulose) (HPC)
[4] = dose: 400.0 mg/kg/injection, schedule: Q01DX009 (ip), vehicle: Klucel (hydroxypropylcellulose) (HPC)
[5] = dose: 50.0 mg/kg/injection, schedule: Q01DX009 (ip), vehicle: saline with Tween-80
[6] = dose: 100.0 mg/kg/injection, schedule: Q01DX009 (ip), vehicle: saline with Tween-80
[7] = dose: 200.0 mg/kg/injection, schedule: Q01DX009 (ip), vehicle: saline with Tween-80
[8] = dose: 200.0 mg/kg/injection, schedule: Q04DX003 (ip), vehicle: saline
[9] = dose: 400.0 mg/kg/injection, schedule: Q04DX003 (ip), vehicle: saline
[10] = dose: 100.0 mg/kg/injection, schedule: Q04DX003 (ip), vehicle: saline with Tween-80
[11] = dose: 200.0 mg/kg/injection, schedule: Q04DX003 (ip), vehicle: saline with Tween-80
[12] = dose: 100.0 mg/kg/injection, schedule: Q04DX003 (ip), vehicle: Klucel (hydroxypropylcellulose) (HPC)
[13] = dose: 200.0 mg/kg/injection, schedule: Q04DX003 (ip), vehicle: Klucel (hydroxypropylcellulose) (HPC)
[14] = dose: 400.0 mg/kg/injection, schedule: Q04DX003 (ip), vehicle: Klucel (hydroxypropylcellulose) (HPC)
[15] = dose: 100.0 mg/kg/injection, schedule: Q01DX001 (ip), vehicle: saline
[16] = dose: 200.0 mg/kg/injection, schedule: Q01DX001 (ip), vehicle: saline
[17] = dose: 400.0 mg/kg/injection, schedule: Q01DX001 (ip), vehicle: saline
[18] = dose: 100.0 mg/kg/injection, schedule: Q01DX001 (ip), vehicle: Klucel (hydroxypropylcellulose) (HPC)
[19] = dose: 200.0 mg/kg/injection, schedule: Q01DX001 (ip), vehicle: Klucel (hydroxypropylcellulose) (HPC)
[20] = dose: 400.0 mg/kg/injection, schedule: Q01DX001 (ip), vehicle: Klucel (hydroxypropylcellulose) (HPC)
[21] = dose: 100.0 mg/kg/injection, schedule: Q01DX001 (ip), vehicle: carboxymethylcellulose (CMC)
[22] = dose: 200.0 mg/kg/injection, schedule: Q01DX001 (ip), vehicle: carboxymethylcellulose (CMC)
[23] = dose: 400.0 mg/kg/injection, schedule: Q01DX001 (ip), vehicle: carboxymethylcellulose (CMC)

Measured: T/C

c1ccc(-c2ncc3cnccn23)cc1
inactive: dose: 25.0 mg/kg/injection, schedule: Q04DX003 (ip), vehicle: saline 100 % of control | dose: 50.0 mg/kg/injection, schedule: Q04DX003 (ip), vehicle: saline 102 % of control | [1] 98 % of control and 102 % of control

CNC(=O)Nc1nc2ccccc2s1
inactive: dose: 50.0 mg/kg/injection, schedule: Q04DX002 (ip), vehicle: Klucel (hydroxypropylcellulose) (HPC) 91 % of control | [2] 103 % of control | dose: 100.0 mg/kg/injection, schedule: Q04DX002 (ip), vehicle: Klucel (hydroxypropylcellulose) (HPC) 97 % of control and 98 % of control | [3] 93 % of control | dose: 200.0 mg/kg/injection, schedule: Q04DX002 (ip), vehicle: Klucel (hydroxypropylcellulose) (HPC) 94 % of control | [4] 93 % of control | dose: 400.0 mg/kg/injection, schedule: Q04DX002 (ip), vehicle: Klucel (hydroxypropylcellulose) (HPC) 90 % of control

COc1cc(/C=N/NC(C)=O)ccc1O
inactive: [5] 97 % of control | [6] 94 % of control | [7] 110 % of control

CCSC1OC(C(COC(C)=O)OC(C)=O)C(OC(C)=O)C1SCC (configuration not stated)
inactive: dose: 100.0 mg/kg/injection, schedule: Q04DX003 (ip), vehicle: other 97 % of control | dose: 200.0 mg/kg/injection, schedule: Q04DX003 (ip), vehicle: other 103 % of control | dose: 400.0 mg/kg/injection, schedule: Q04DX003 (ip), vehicle: other 101 % of control

CCOc1ccc(NC(=S)N=Nc2c(O)[nH]c3c(Cl)cc(Cl)cc23)cc1
inactive: [1] 91 % of control | [8] 89 % of control | [9] 89 % of control

O=C1C(N2CCOCC2)=Cc2cccc3cccc1c23
inactive: [5] 103 % of control | [6] 97 % of control | [10] 92 % of control | [7] 97 % of control and 90 % of control | [11] 97 % of control

CCN(CC)C(=O)N1CCN(c2ccc(OC)cc2)CC1
inactive: dose: 75.0 mg/kg/injection, schedule: Q01DX001 (ip), vehicle: saline 94 % of control | dose: 75.0 mg/kg/injection, schedule: Q04DX003 (ip), vehicle: saline 100 % of control | dose: 150.0 mg/kg/injection, schedule: Q01DX001 (ip), vehicle: saline 100 % of control | dose: 150.0 mg/kg/injection, schedule: Q04DX003 (ip), vehicle: saline 100 % of control | dose: 300.0 mg/kg/injection, schedule: Q01DX001 (ip), vehicle: saline 91 % of control | dose: 300.0 mg/kg/injection, schedule: Q04DX003 (ip), vehicle: saline 110 % of control

CNC(=O)NNC(=O)c1ccc(Cl)cc1
inactive: dose: 25.0 mg/kg/injection, schedule: Q01DX009 (ip), vehicle: saline with Tween-80 91 % of control | [5] 94 % of control

O=C1c2cccc3cccc(c23)C1(Br)C(Br)c1ccccc1 (configuration not stated)
inactive: dose: 100.0 mg/kg/injection, schedule: Q04DX002 (ip), vehicle: saline with Tween-80 97 % of control | dose: 200.0 mg/kg/injection, schedule: Q04DX002 (ip), vehicle: saline with Tween-80 97 % of control | dose: 400.0 mg/kg/injection, schedule: Q04DX002 (ip), vehicle: saline with Tween-80 97 % of control

CCOC(=O)/C(C)=N/Nc1nn[nH]n1
inactive: [1] 99 % of control | [8] 99 % of control | [9] 86 % of control

CCOc1ccc(OC(=O)c2ccc(O)cc2)cc1
inactive: [12] 106 % of control | [13] 101 % of control | [14] 96 % of control

NC(=O)NC1C(c2ccccc2)C1c1ccccc1 (configuration not stated)
inactive: [15] 121 % of control | [16] 110 % of control | [17] 93 % of control

O=S1(=O)C(C(O)(c2ccccc2)c2ccccc2)CCC1C(O)(c1ccccc1)c1ccccc1 (configuration not stated)
inactive: [2] 98 % of control | [12] 102 % of control | [3] 98 % of control | [13] 93 % of control | [4] 93 % of control | [14] 105 % of control

O=[N+]([O-])c1ccc(Cl)c(CNc2ncnc3c2ncn3C2CCCCO2)c1 (configuration not stated)
inactive: [10] 102 % of control | [11] 92 % of control | dose: 400.0 mg/kg/injection, schedule: Q04DX003 (ip), vehicle: saline with Tween-80 102 % of control

O=C1/C(=C\c2ccccc2)C2CCC(C2)/C1=C\c1ccccc1
inactive: dose: 50.0 mg/kg/injection, schedule: Q01DX009 (ip), vehicle: Klucel (hydroxypropylcellulose) (HPC) 99 % of control | [2] 102 % of control | [3] 99 % of control

Nc1cccnc1
inactive: dose: 5.0 mg/kg/injection, schedule: Q01DX009 (ip), vehicle: saline 104 % of control | dose: 10.0 mg/kg/injection, schedule: Q01DX009 (ip), vehicle: saline 95 % of control | dose: 20.0 mg/kg/injection, schedule: Q01DX009 (ip), vehicle: saline 98 % of control

COC1OC2COC(c3ccccc3)OC2C(N=[N+]=[N-])C1O (configuration not stated)
inactive: dose: 100.0 mg/kg/injection, schedule: Q01DX001 (ip), vehicle: gum acacia 100 % of control | dose: 200.0 mg/kg/injection, schedule: Q01DX001 (ip), vehicle: gum acacia 97 % of control | dose: 400.0 mg/kg/injection, schedule: Q01DX001 (ip), vehicle: gum acacia 92 % of control

CCc1nnnn1-c1ccc(Br)cc1
inactive: [18] 93 % of control | [19] 102 % of control | [20] 116 % of control

CN(C)C=Nc1c2c(C#N)cn(C3OC(CO)C(O)C3O)c2nc[n+]1[O-] (configuration not stated)
inactive: dose: 12.5 mg/kg/injection, schedule: Q01DX005 (ip), vehicle: saline 97 % of control | dose: 12.5 mg/kg/injection, schedule: Q01DX009 (ip), vehicle: saline 104 % of control | dose: 25.0 mg/kg/injection, schedule: Q01DX005 (ip), vehicle: saline 102 % of control | dose: 25.0 mg/kg/injection, schedule: Q01DX009 (ip), vehicle: saline 104 % of control | dose: 50.0 mg/kg/injection, schedule: Q01DX005 (ip), vehicle: saline 105 % of control | dose: 50.0 mg/kg/injection, schedule: Q01DX009 (ip), vehicle: saline 109 % of control

O=CC(=O)Nc1ccc(C(=O)O)c(O)c1
inactive: [2] 95 % of control | [3] 95 % of control | [4] 98 % of control

Clc1ccc(S/C=C/c2ccccc2)cc1
inactive: [18] 103 % of control | [2] 91 % of control | [12] 102 % of control | [19] 110 % of control | [3] 100 % of control | [13] 98 % of control | [20] 97 % of control | [4] 91 % of control | [14] 104 % of control

COC1CCC2CC3(CCC2(C)C1O)OCCO3 (configuration not stated)
inactive: [21] 100 % of control | [22] 105 % of control | [23] 97 % of control

Cc1c(C)c2ccccc2[nH]c1=O
inactive: [21] 88 % of control | [15] 100 % of control | [22] 88 % of control | [16] 95 % of control | [23] 96 % of control | [17] 95 % of control
